biological target: T1, human CETP (Homo sapiens, UniProt P11597); test: Assay of cholesteryl ester transfer protein inhibitory activity, standard measurement system; format: biochemical; details: BODIPY-CE-ME donor, VLDL-LDL acceptor, reaction at 37° C. for 30 min.
T1 sequence (P11597 18-493): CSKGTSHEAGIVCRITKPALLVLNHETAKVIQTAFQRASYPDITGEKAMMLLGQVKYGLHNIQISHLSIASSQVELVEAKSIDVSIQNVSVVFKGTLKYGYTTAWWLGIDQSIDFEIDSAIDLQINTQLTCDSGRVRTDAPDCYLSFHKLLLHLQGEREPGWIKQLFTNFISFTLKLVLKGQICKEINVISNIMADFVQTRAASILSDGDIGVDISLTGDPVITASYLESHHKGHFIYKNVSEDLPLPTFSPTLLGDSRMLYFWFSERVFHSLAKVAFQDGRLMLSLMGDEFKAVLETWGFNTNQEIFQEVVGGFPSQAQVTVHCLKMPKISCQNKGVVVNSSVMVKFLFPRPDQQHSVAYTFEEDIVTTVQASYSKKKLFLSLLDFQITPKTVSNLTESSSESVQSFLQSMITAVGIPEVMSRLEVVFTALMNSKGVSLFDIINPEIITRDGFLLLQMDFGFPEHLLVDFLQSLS
Method: (§1) Assay of Cholesteryl Ester Transfer Protein Inhibitory Activity
(§2) Fresh rabbit serum was adjusted with KBr to the density of (1.063 g/ml), and the fractions (VLDL-LDL, density<1.063 g/ml) floated by ultra-centrifugation operation (SW41—Ti, 40,000 rpm, 18 hrs., 4° C., Beckman model L8-55) were collected, subjected to dialysis against 0.15 M NaCl-10 mM Tris-HCl, pH 7.4 (TBS), sterilized by filtration through a filter and preserved at 4° C.
(§3) A solution of BODIPY-CE (0.6 mg) in chloroform was added to egg PC (phosphatidylcholine) ([…]) and triolein (2 mg), and after dissolution, the lipid was air dried under a nitrogen gas reflux and the solvent was removed under high vacuum. To this lipid was added an apo HDL solution (7.5 ml) obtained by defatting human HDL (1.063<d<1.21) with chloroform-methanol (2:1, v/v), dissolving in 6 M urea-containing TBS and dialyzing against TBS, and the mixture was subjected to sonication (BRANSON SONIFIRE CELL DISRUPTOR 200, dial 6, 5 min×4) to give BOBIPY-CE-ME. After centrifugation (CENTRIPREP 10), it was sterilized by filtration through a filter and preserved at 4° C.
(§4) The test compound (20% DMSO solution, 5 μl), TS (75 μl), acceptor lipoprotein (VLDL-LDL, 20 μl) and partially purified human CETP (25 μl) were mixed and incubated at 37° C. for 30 min. BODIPY-CE-ME (25 μl) was added (total 150 μl) and a transfer reaction was started. After reaction at 37° C. for 30 min., fluorescence intensity was measured at Ex. 490 nm/Em. 530 nm. The CETP inhibitory activity (% inhibition) was calculated by the following formula. [formula] 4) 50% Human Plasma-Containing Measurement System
(§5) The IC50 value was determined as a concentration showing 50% inhibition by plotting the logarithm of the concentration of test compound and % inhibition.

Row | IC50 [µM] | Compound
1 | 0.03 | O=C(NC(Cc1cccc(OC(F)(F)C(F)F)c1)C(O)c1ccc(F)cc1)c1ccc(F)c2ccccc12 (stereo not drawn) [228(+)-form]
2 | 0.12 | O=C(N[C@H](Cc1ccc(C(F)(F)F)cc1)[C@@H](O)c1ccc(F)cc1)c1cccc2c1C=CCCC2 (racemic) [Example 29, N-[(1RS,2SR)-2-(4-fluorophenyl)-2-hydroxy-1-[4-(trifluoromethyl)benzyl]ethyl]-6,7-dihydro-5H-benzo[a]cycloheptene-1-carboxamide]
3 | 0.091 | O=C(N[C@H](Cc1ccc(C(F)(F)F)cc1)[C@@H](O)c1cccc(F)c1)c1cccc2c1C=CCCC2 (racemic) [Example 177, N-((1RS,2SR)-2-(3-fluorophenyl)-2-hydroxy-1-((4-(trifluoromethyl)phenyl)methyl)ethyl)-6,7-dihydro-5H-benzo[a]cycloheptene-1-carboxamide]
4 | 0.079 | O=C(N[C@H](Cc1cccc(OC(F)(F)C(F)F)c1)[C@@H](O)c1cccc(F)n1)c1cccc2c1C=CCCC2 (racemic) [Example 222, N-((1RS,2RS)-2-(6-fluoropyridin-2-yl)-2-hydroxy-1-((3-(1,1,2,2-tetrafluoroethoxy)phenyl)methyl)ethyl)-6,7-dihydro-5H-benzo[a]cycloheptene-1-carboxamide]

biological target: T1, human CETP; test: Assay of cholesteryl ester transfer protein inhibitory activity, 50% human plasma-containing measurement system; format: biochemical; details: BODIPY-CE-ME donor, VLDL-LDL acceptor, reaction at 37° C. for 60 min.
Method: as §1, §2, §3
as §4, with “5 μl), human plasma (75 μl),” for “5 μl), TS (75 μl),”, “C. for 60 min., fluorescence” for “C. for 30 min., fluorescence”, “formula. [formula]” for “formula. [formula] 4) 50% Human Plasma-Containing Measurement System”
as §5

Row | IC50 [µM] | Compound
5 | 0.99 | O=C(NC(Cc1cccc(OC(F)(F)C(F)F)c1)C(O)c1ccc(F)cc1)c1ccc(F)c2ccccc12 (stereo not drawn) [228(+)-form]

tested on: not given; test: not given; details: not given

Row | Compound | melting point [°C]
6 | O=C(N[C@H](Cc1ccc(C(F)(F)F)cc1)[C@@H](O)c1ccc(F)cc1)c1cccc2c1C=CCCC2 (racemic) [Example 29, N-[(1RS,2SR)-2-(4-fluorophenyl)-2-hydroxy-1-[4-(trifluoromethyl)benzyl]ethyl]-6,7-dihydro-5H-benzo[a]cycloheptene-1-carboxamide] | 197 to 198
7 | O=C(N[C@H](Cc1ccc(C(F)(F)F)cc1)[C@@H](O)c1cccc(F)c1)c1cccc2c1C=CCCC2 (racemic) [Example 177, N-((1RS,2SR)-2-(3-fluorophenyl)-2-hydroxy-1-((4-(trifluoromethyl)phenyl)methyl)ethyl)-6,7-dihydro-5H-benzo[a]cycloheptene-1-carboxamide] | 151 to 152
8 | O=C(N[C@H](Cc1ccc(C(F)(F)F)cc1)[C@@H](O)c1cccc2ccccc12)c1ccc2ccccc2c1 (racemic) [Example 187, N-((1RS,2SR)-2-hydroxy-2-(1-naphthalenyl)-1-((4-(trifluoromethyl)phenyl)methyl)ethyl)-2-naphthalenecarboxamide] | 251 to 252
9 | O=C(N[C@H](Cc1ccc(C(F)(F)F)cc1)[C@@H](O)c1ccc(F)cc1)c1ccc(C(=O)c2ccc(F)cc2)cc1 (racemic) [Example 88, 4-(4-fluorobenzoyl)-N-[(1RS,2SR)-2-(4-fluorophenyl)-2-hydroxy-1-[4-(trifluoromethyl)benzyl]ethyl]benzenecarboxamide] | 156 to 157
10 | O=C(N[C@H](Cc1ccc(C(F)(F)F)cc1)[C@@H](O)c1ccc(F)cc1)C(F)(F)F (racemic) [Example 70, N-[(1RS,2SR)-2-(4-fluorophenyl)-2-hydroxy-1-[4-(trifluoromethyl)benzyl]ethyl]-2,2,2-trifluoroacetamide] | 162 to 163
11 | CCOc1ccc2ccccc2c1C(=O)N[C@H](Cc1ccc(C(F)(F)F)cc1)[C@@H](O)c1ccc(F)cc1 (racemic) [Example 83, 2-(ethyloxy)-N-((1RS,2SR)-2-(4-fluorophenyl)-2-hydroxy-1-((4-(trifluoromethyl)phenyl)methyl)ethyl)-1-naphthalenecarboxamide] | 157 to 158
12 | O=C(N[C@H](Cc1ccc(C(F)(F)F)cc1)[C@@H](O)c1ccc(F)cc1)c1ccc(C(F)(F)F)cc1 (racemic) [Example 81, N-((1RS,2SR)-2-(4-fluorophenyl)-2-hydroxy-1-((4-(trifluoromethyl)phenyl)methyl)ethyl)-4-(trifluoromethyl)benzamide] | 228 to 229
13 | CC(C)(C)c1ccc(C[C@@H](NC(=O)c2ccc(F)c3ccccc23)[C@@H](O)c2cccc(Cl)c2)cc1 (racemic) [Example 273, N-[(1RS,2SR)-1-(4-tert-butylbenzyl)-2-(3-chlorophenyl)-2-hydroxyethyl]-4-fluoro-1-naphthamide] | 144 to 145
14 | O=C(N[C@H](Cc1cccc(OC(F)(F)C(F)F)c1)[C@@H](O)c1cccc(F)n1)c1cccc2c1C=CCCC2 (racemic) [Example 222, N-((1RS,2RS)-2-(6-fluoropyridin-2-yl)-2-hydroxy-1-((3-(1,1,2,2-tetrafluoroethoxy)phenyl)methyl)ethyl)-6,7-dihydro-5H-benzo[a]cycloheptene-1-carboxamide] | 151 to 152
15 | O=C(N[C@H](Cc1ccc(CC(F)(F)C(F)(F)F)cc1)[C@@H](O)c1cccc(Cl)c1)c1cccc2c(Cl)cccc12 (racemic) [Example 375, 5-chloro-N-{(1RS,2SR)-2-(3-chlorophenyl)-2-hydroxy-1-[4-(2,2,3,3,3-pentafluoropropyl)benzyl]ethyl}-1-naphthamide] | 216 to 217
16 | O=C(N[C@H](Cc1ccc(C(F)(F)F)cc1)[C@@H](O)c1ccc(F)cc1)c1cccc(-c2ccccc2)c1 (racemic) [Example 74, N-((1RS,2SR)-2-(4-fluorophenyl)-2-hydroxy-1-((4-(trifluoromethyl)phenyl)methyl)ethyl)[1,1′-biphenyl]-3-carboxamide] | 165 to 166
17 | O=Cc1cccc(-c2ccc([C@H](O)[C@@H](Cc3cccc(OC(F)(F)C(F)F)c3)NC(=O)c3cccc4c3C=CCCC4)cc2)c1 (racemic) [Example 300, N-[(1RS,2SR)-2-(3′-formyl[1,1′-biphenyl]-4-yl)-2-hydroxy-1-[3-(1,1,2,2-tetrafluoroethoxy)benzyl]ethyl]-6,7-dihydro-5H-benzo[a]cycloheptene-1-carboxamide] | 103 to 105
18 | Cc1cc(C)c(C(=O)NC(Cc2ccc(C(F)(F)F)cc2)C(O)c2ccc(F)cc2)c(C)c1 (racemic) [Example 17, N-[2-(4-fluorophenyl)-2-hydroxy-1-[[4-(trifluoromethyl)phenyl]methyl]ethyl]-2,4,6-trimethylbenzamide] | 141 to 143

Other lines, results leading:

Row | melting point [°C] | Compound
19 | 211 to 212 | O=C(N[C@H](Cc1ccc(C(F)(F)F)cc1)[C@@H](O)c1ccc(F)cc1)c1cccc2c(Cl)cccc12 (racemic) [Example 37, 5-chloro-N-[(1RS,2SR)-2-(4-fluorophenyl)-2-hydroxy-1-[4-(trifluoromethyl)benzyl]ethyl]naphthalene-1-carboxamide]
20 | 193 to 194 | O=C(N[C@H](Cc1cccc(C(F)(F)F)c1)[C@@H](O)c1ccc(F)cc1)c1ccc(F)c2ccccc12 (racemic) [Example 137, 4-fluoro-N-((1RS,2SR)-2-(4-fluorophenyl)-2-hydroxy-1-((3-(trifluoromethyl)phenyl)methyl)ethyl)-1-naphthalenecarboxamide]
21 | 162 to 163 | C=C(c1cccc(C[C@@H](NC(=O)c2ccc(F)c3ccccc23)[C@@H](O)c2ccc(F)cc2)c1)C(F)(F)C(F)F (racemic) [Example 349, 4-fluoro-N-[(1RS,2SR)-2-(4-fluorophenyl)-2-hydroxy-1-[3-[1-(1,1,2,2-tetrafluoroethyl)vinyl]benzyl]ethyl]naphthalene-1-carboxamide]
22 | 192 to 193 | O=C(N[C@H](Cc1ccc(OC(F)(F)C(F)F)cc1)[C@@H](O)c1ccc(F)cc1)c1ccc(F)c2ccccc12 (racemic) [Example 131, 4-fluoro-N-[(1RS,2SR)-2-(4-fluorophenyl)-2-hydroxy-1-[4-(1,1,2,2-tetrafluoroethoxy)benzyl]ethyl]naphthalene-1-carboxamide]
23 | 101 to 104 | CC1(C)CCC=Cc2c(C(=O)N[C@H](Cc3cccc(OC(F)(F)C(F)F)c3)[C@@H](O)c3ccc(F)cc3)cccc21 (racemic) [Example 305, N-[(1RS,2SR)-2-(4-fluorophenyl)-2-hydroxy-1-[3-(1,1,2,2-tetrafluoroethoxy)benzyl]ethyl]-5,5-dimethyl-6,7-dihydro-5H-benzo[a]cycloheptene-1-carboxamide]
24 | 227 to 228 | COc1ccc(C(=O)N[C@H](Cc2ccc(C(F)(F)F)cc2)[C@@H](O)c2ccc(F)cc2)c2ccccc12 (racemic) [Example 101, N-[(1RS,2SR)-2-(4-fluorophenyl)-2-hydroxy-1-[4-(trifluoromethyl)benzyl]ethyl]-4-methoxynaphthalene-1-carboxamide]
25 | 189 to 190 | O=C(N[C@H](Cc1cccc(OC(F)(F)F)c1)[C@@H](O)c1ccc(F)cc1)c1ccc(F)c2ccccc12 (racemic) [Example 132, 4-fluoro-N-[(1RS,2SR)-2-(4-fluorophenyl)-2-hydroxy-1-[3-(trifluoromethoxy)benzyl]ethyl]naphthalene-1-carboxamide]
